Several values for one entry are separate records, joined by “and”; a condition that tells them apart may be missing. Identical values can stand only once. Like-named read-outs stand apart in the source and are kept apart here.
Target: wild-type Epidermal Growth Factor Receptor (EGFR) (Homo sapiens (Human), UniProt P00533)
Experiment: WT-EGFR Kinase Assay (TR-FRET, 2 mM ATP)
Format: biochemical
Source text: Inhibitory activity of compounds of the present invention against wild-type Epidermal Growth Factor Receptor (EGFR) was quantified employing the TR-FRET based EGFR assay as described in the following paragraphs.
Recombinant fusion protein of N-terminal Glutathion-S-Transferase (GST) and a fragment of human EGFR (amino acids R669 to A1210), expressed in Sf9 insect cells and purified via affinity chromatography using Glutathion Sepharose as described above, was used as kinase. As substrate for the kinase reaction the biotinylated peptide biotin-Ahx-[…] (C-terminus in amide form) was used which can be purchased e.g. form the company Biosynthan GmbH (Berlin-Buch, Germany).
For the assay 50 nl of a 100 fold concentrated solution of the test compound in DMSO was pipetted into either a black low volume 384 well microtiter plate or a black 1536 well microtiter plate (both Greiner Bio-One, Frickenhausen, Germany), 2 μL of a solution of EGFR in aqueous assay buffer [50 mM Hepes pH 7.0, 10 mM MgCl2, 1 mM dithiothreitol, 0.5 mM EGTA, 0.3 mM activated sodium ortho-vanadate, 0.005% (w/v) bovine serum albumin, 0.005% (v/v) Tween-20] were added and the mixture was incubated for 15 min at 22° C. to allow pre-binding of the test compounds to the enzyme before the start of the kinase reaction. […] The concentration of EGFR was adjusted depending of the activity of the enzyme lot and was chosen appropriate to have the assay in the linear range, typical concentration was […]. The reaction was stopped by the addition of 3 μL of a solution of HTRF detection reagents (83.3 nM streptavidine-XL665 [Cisbio Bioassays, Codolet, France] and 1.67 nM PT66-Tb-Cryptate, a terbium-cryptate labelled anti-phospho-tyrosine antibody from Cisbio Bioassays [instead of the PT66-Tb-cryptate PT66-Eu-Chelate from Perkin Elmer can also be used]) in an aqueous EDTA-solution (133.3 mM EDTA, 0.2% (w/v) bovine serum albumin in 50 mM HEPES pH 7.5).
The resulting mixture was incubated 1 h at 22° C. to allow the binding of the biotinylated phosphorylated peptide to the streptavidine-XL665 and the PT66-Tb-Cryptate. Subsequently the amount of phosphorylated substrate was evaluated by measurement of the resonance energy transfer from the PT66-Tb-Cryptate to the streptavidine-XL665. Therefore, the fluorescence emissions at 620 nm and 665 nm after excitation at 337 nm were measured in a HTRF reader, e.g. a Pherastar (BMG Labtechnologies, Offenburg, Germany) or a Viewlux (Perkin-Elmer). The ratio of the emissions at 665 nm and at 622 nm was taken as the measure for the amount of phosphorylated substrate.

[1] = EGFR Wildtyp 2 mM ATP IC50 [mol/l] (median), median or individual measurements
[2] = read-out: EGFR Wildtyp 2 mM ATP IC50 [mol/l] (median), median or individual measurements

Sequence of wild-type Epidermal Growth Factor Receptor (EGFR) (P00533 669-1210): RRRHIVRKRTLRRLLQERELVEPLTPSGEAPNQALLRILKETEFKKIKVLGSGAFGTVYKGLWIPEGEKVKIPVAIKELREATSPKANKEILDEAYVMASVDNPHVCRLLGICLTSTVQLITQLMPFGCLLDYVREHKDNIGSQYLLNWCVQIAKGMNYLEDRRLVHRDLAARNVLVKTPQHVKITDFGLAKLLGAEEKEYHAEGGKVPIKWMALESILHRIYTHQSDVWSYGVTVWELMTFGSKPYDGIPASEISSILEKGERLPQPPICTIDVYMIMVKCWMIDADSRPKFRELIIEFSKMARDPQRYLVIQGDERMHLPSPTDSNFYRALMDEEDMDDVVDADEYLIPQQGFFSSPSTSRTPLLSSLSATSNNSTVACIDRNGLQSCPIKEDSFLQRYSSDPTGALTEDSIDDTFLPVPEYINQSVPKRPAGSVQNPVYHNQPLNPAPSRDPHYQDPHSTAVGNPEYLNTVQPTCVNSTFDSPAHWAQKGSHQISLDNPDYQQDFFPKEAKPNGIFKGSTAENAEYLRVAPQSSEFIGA

How did the IC50 [1] turn out when `Cn1ccc2[nH]c(-c3ccnc(NC(=O)C(CC(F)F)c4ccc(F)cc4)c3)c(-c3ccccc3)c2c1=O` (single isomer, unassigned) [Example 008, 4,4-difluoro-2-(4-fluorophenyl)-N-[4-(5-methyl-4-oxo-3-phenyl-4,5-dihydro-1H-pyrrolo[3,2-c]pyridin-2-yl)pyridin-2-yl]butanamide] was run?
The IC50 was 7.82 µM and 7.83 µM and > 20 µM (2×).

Which IC50 [1] does the source give for `CN1CCc2[nH]c(-c3ccnc(NC(=O)C(CC(F)F)c4ccc(F)cc4)c3)c(-c3cccnc3)c2C1=O` (single isomer, unassigned) [Example 010, 4,4-difluoro-2-(4-fluorophenyl)-N-{4-[5-methyl-4-oxo-3-(pyridin-3-yl)-4,5,6,7-tetrahydro-1H-pyrrolo[3,2-c]pyridin-2-yl]pyridin-2-yl}butanamide] here?
The IC50 was > 20 µM.

`CN1CCc2[nH]c(-c3ccnc(NC(=O)C(CC(F)F)c4ccc(F)cc4)c3)c(-c3cccnc3)c2C1=O` (single isomer, unassigned) [Example 011, 4,4-difluoro-2-(4-fluorophenyl)-N-{4-[5-methyl-4-oxo-3-(pyridin-3-yl)-4,5,6,7-tetrahydro-1H-pyrrolo[3,2-c]pyridin-2-yl]pyridin-2-yl}butanamide] was tested. Which IC50 [2] did it give?
Its IC50 is > 20 µM.

With `Cn1cc(CC(F)(F)F)c2[nH]c(-c3ccnc(NC(=O)C(CC(F)F)c4ccc(F)cc4)c3)c(-c3ccc(F)cc3)c2c1=O` (single isomer, unassigned) [Example 027, 4,4-difluoro-2-(4-fluorophenyl)-N-{4-[3-(4-fluorophenyl)-5-methyl-4-oxo-7-(2,2,2-trifluoroethyl)-4,5-dihydro-1H-pyrrolo[3,2-c]pyridin-2-yl]pyridin-2-yl}butanamide] as the compound, how does the IC50 [1] read?
The IC50 was > 20 µM.

For `Cn1cc(CC(F)(F)F)c2[nH]c(-c3ccnc(NC(=O)C(CC(F)F)c4ccc(F)cc4)c3)c(-c3ccc(F)cc3)c2c1=O` (single isomer, unassigned) [Example 028, 4,4-difluoro-2-(4-fluorophenyl)-N-{4-[3-(4-fluorophenyl)-5-methyl-4-oxo-7-(2,2,2-trifluoroethyl)-4,5-dihydro-1H-pyrrolo[3,2-c]pyridin-2-yl]pyridin-2-yl}butanamide], which IC50 [1] is on record?
The IC50 was > 5.71 µM.

How did the IC50 [1] turn out when `CC1(C)CNC(=O)c2c1[nH]c(-c1ccnc(NC(=O)C(CC(F)F)c3ccc(F)cc3)c1)c2-c1ccccc1` (single isomer, unassigned) [Example 044, N-[4-(7,7-dimethyl-4-oxo-3-phenyl-4,5,6,7-tetrahydro-1H-pyrrolo[3,2-c]pyridin-2-yl)pyridin-2-yl]-4,4-difluoro-2-(4-fluorophenyl)butanamide] was run?
The IC50 was > 20 µM.

With `CC1(C)CNC(=O)c2c1[nH]c(-c1ccnc(NC(=O)C(CC(F)F)c3ccc(F)cc3)c1)c2-c1ccccc1` (single isomer, unassigned) [Example 045, N-[4-(7,7-dimethyl-4-oxo-3-phenyl-4,5,6,7-tetrahydro-1H-pyrrolo[3,2-c]pyridin-2-yl)pyridin-2-yl]-4,4-difluoro-2-(4-fluorophenyl)butanamide] as the compound, how does the IC50 [2] read?
The IC50 was > 20 µM.

For `CC(C(=O)Nc1cc(-c2[nH]c3c(c2-c2ccccc2)C(=O)NCC3(C)C)ccn1)c1ccc(F)cc1` (single isomer, unassigned) [Example 047, N-[4-(7,7-dimethyl-4-oxo-3-phenyl-4,5,6,7-tetrahydro-1H-pyrrolo[3,2-c]pyridin-2-yl)pyridin-2-yl]-2-(4-fluorophenyl)propanamide], which IC50 [1] is on record?
The IC50 was > 20 µM.

With `CC(C(=O)Nc1cc(-c2[nH]c3c(c2-c2ccccc2)C(=O)NCC3(C)C)ccn1)c1ccc(F)cc1` (single isomer, unassigned) [Example 048, N-[4-(7,7-dimethyl-4-oxo-3-phenyl-4,5,6,7-tetrahydro-1H-pyrrolo[3,2-c]pyridin-2-yl)pyridin-2-yl]-2-(4-fluorophenyl)propanamide] as the compound, how does the IC50 [2] read?
Its IC50 is > 20 µM.

How did the IC50 [1] turn out when `CC(C(=O)Nc1cc(-c2[nH]c3c(CC(F)(F)F)cn(C)c(=O)c3c2-c2ccccc2)ccn1)c1ccc(F)cc1` (single isomer, unassigned; (+)) [Example 015, (+)-2-(4-fluorophenyl)-N-{4-[5-methyl-4-oxo-3-phenyl-7-(2,2,2-trifluoroethyl)-4,5-dihydro-1H-pyrrolo[3,2-c]pyridin-2-yl]pyridin-2-yl}propanamide] was run?
The IC50 was 1.91 µM.

How did the IC50 [2] turn out when `Cn1cc(CC(F)(F)F)c2[nH]c(-c3ccnc(NC(=O)C(CC(F)F)c4ccc(F)cc4)c3)c(-c3ccccc3)c2c1=O` (single isomer, unassigned; (+)) [Example 020, (+)-4,4-difluoro-2-(4-fluorophenyl)-N-{4-[5-methyl-4-oxo-3-phenyl-7-(2,2,2-trifluoroethyl)-4,5-dihydro-1H-pyrrolo[3,2-c]pyridin-2-yl]pyridin-2-yl}butanamide] was run?
Its IC50 is > 20 µM.

Which IC50 [2] does the source give for `CC(C(=O)Nc1cc(-c2[nH]c3c(CC(F)(F)F)cn(C)c(=O)c3c2-c2ccc(F)cc2)ccn1)c1ccc(F)cc1` (single isomer, unassigned; (+)) [Example 024, (+)-2-(4-fluorophenyl)-N-{4-[3-(4-fluorophenyl)-5-methyl-4-oxo-7-(2,2,2-trifluoroethyl)-4,5-dihydro-1H-pyrrolo[3,2-c]pyridin-2-yl]pyridin-2-yl}propanamide] here?
The IC50 was > 20 µM.

For `Cc1cn(C)c(=O)c2c(-c3ccc(F)cc3)c(-c3ccnc(NC(=O)C(C)c4ccc(F)cc4)c3)[nH]c12` (single isomer, unassigned; (+)) [Example 032, (+)-2-(4-fluorophenyl)-N-{4-[3-(4-fluorophenyl)-5,7-dimethyl-4-oxo-4,5-dihydro-1H-pyrrolo[3,2-c]pyridin-2-yl]pyridin-2-yl}propanamide], which IC50 [2] is on record?
The IC50 was > 20 µM.

With `Cc1cn(C)c(=O)c2c(-c3ccc(F)cc3)c(-c3ccnc(NC(=O)C(CC(F)F)c4ccc(F)cc4)c3)[nH]c12` (single isomer, unassigned; (+)) [Example 036, (+)-4,4-difluoro-2-(4-fluorophenyl)-N-{4-[3-(4-fluorophenyl)-5,7-dimethyl-4-oxo-4,5-dihydro-1H-pyrrolo[3,2-c]pyridin-2-yl]pyridin-2-yl}butanamide] as the compound, how does the IC50 [2] read?
The IC50 was > 20 µM.

Which IC50 [1] does the source give for `CN1C(=O)c2c([nH]c(-c3ccnc(NC(=O)C(CC(F)F)c4ccc(F)cc4)c3)c2-c2ccccc2)CC12CCC2` (single isomer, unassigned; (+)) [Example 051, (+)-4,4-difluoro-2-(4-fluorophenyl)-N-[4-(5′-methyl-4′-oxo-3′-phenyl-1′,4′,5′,7′-tetrahydrospiro-[cyclobutane-1,6′-pyrrolo[3,2-c]pyridin]-2′-yl)pyridin-2-yl]butanamide] here?
The IC50 was 3.2 µM.

How did the IC50 [2] turn out when `CC(C(=O)Nc1cc(-c2[nH]c3c(c2-c2ccccc2)C(=O)N(C)C2(CCC2)C3)ccn1)c1ccc(F)cc1` (single isomer, unassigned; (+)) [Example 054, (+)-2-(4-fluorophenyl)-N-[4-(5′-methyl-4′-oxo-3′-phenyl-1′,4′,5′,7′-tetrahydrospiro[cyclobutane-1,6′-pyrrolo[3,2-c]pyridin]-2′-yl)pyridin-2-yl]propanamide] was run?
The IC50 was > 20 µM.

Which IC50 [1] does the source give for `CC(C(=O)Nc1cc(-c2[nH]c3c(CC(F)(F)F)cn(C)c(=O)c3c2-c2ccccc2)ccn1)c1ccc(F)cc1` (single isomer, unassigned; (-)) [Example 016, (-)-2-(4-fluorophenyl)-N-{4-[5-methyl-4-oxo-3-phenyl-7-(2,2,2-trifluoroethyl)-4,5-dihydro-1H-pyrrolo[3,2-c]pyridin-2-yl]pyridin-2-yl}propanamide] here?
Its IC50 is > 20 µM.

For `Cn1cc(CC(F)(F)F)c2[nH]c(-c3ccnc(NC(=O)C(CC(F)F)c4ccc(F)cc4)c3)c(-c3ccccc3)c2c1=O` (single isomer, unassigned; (-)) [Example 019, (-)-4,4-difluoro-2-(4-fluorophenyl)-N-{4-[5-methyl-4-oxo-3-phenyl-7-(2,2,2-trifluoroethyl)-4,5-dihydro-1H-pyrrolo[3,2-c]pyridin-2-yl]pyridin-2-yl}butanamide], which IC50 [1] is on record?
Its IC50 is > 20 µM.

`CC(C(=O)Nc1cc(-c2[nH]c3c(CC(F)(F)F)cn(C)c(=O)c3c2-c2ccc(F)cc2)ccn1)c1ccc(F)cc1` (single isomer, unassigned; (-)) [Example 023, (-)-2-(4-fluorophenyl)-N-{4-[3-(4-fluorophenyl)-5-methyl-4-oxo-7-(2,2,2-trifluoroethyl)-4,5-dihydro-1H-pyrrolo[3,2-c]pyridin-2-yl]pyridin-2-yl}propanamide] was tested. Which IC50 [1] did it give?
Its IC50 is > 20 µM.
